Data published in ChEMBL document CHEMBL5321221, “Structure-activity relationship study of RSL3-based GPX4 degraders and its potential noncovalent optimization” (Eur J Med Chem, 2023).
Activity calls are given as the source filed them. No cut-off for these calls is given here.

Assays:
HT-1080 [1] = experiment: Antiproliferative activity against human HT-1080 cells at 1 uM incubated for 24 hrs in presence of liproxstatin-1; assay type: functional, cell-based
[2] = biological target: T1, Phospholipid hydroperoxide glutathione peroxidase GPX4 (Homo sapiens) (UniProt P36969); experiment: Induction of GPX4 degradation in human HT-1080 cells at 0.1 uM incubated for 6 hrs relative to control; assay type: cell-based
T1 sequence (whole entry): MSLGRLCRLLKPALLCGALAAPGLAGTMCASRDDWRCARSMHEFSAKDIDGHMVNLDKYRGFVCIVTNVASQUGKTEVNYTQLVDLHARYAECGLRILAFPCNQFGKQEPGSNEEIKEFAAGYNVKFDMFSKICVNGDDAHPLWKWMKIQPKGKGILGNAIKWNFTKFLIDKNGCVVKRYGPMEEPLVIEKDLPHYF

HT-1080 [3] = experiment: Potency index, ratio of (4-(bis(4-chlorophenyl)methyl)piperazin-1-yl)(5-methyl-4-nitroisoxazol-3-yl)methanone IC50 to test compound IC50 for antiproliferative activity against human HT-1080 cells; assay type: functional
[4] = biological target: T1, Phospholipid hydroperoxide glutathione peroxidase GPX4 (Homo sapiens); experiment: Induction of GPX4 degradation in human HT-1080 cells in presence of RSL3; assay type: cell-based
[5] = biological target: T1, Phospholipid hydroperoxide glutathione peroxidase GPX4 (Homo sapiens); experiment: Induction of GPX4 degradation in human HT-1080 cells at 0.0001 to 0.1 uM incubated for 24 hrs by Western blotting analysis; assay type: cell-based; details: dose 0.0001-0.1 µM
[6] = biological target: T1, Phospholipid hydroperoxide glutathione peroxidase GPX4 (Homo sapiens); experiment: Induction of GPX4 degradation in human HT-1080 cells at 10 nM incubated for 24 hrs relative to control; assay type: cell-based
[7] = biological target: T1, Phospholipid hydroperoxide glutathione peroxidase GPX4 (Homo sapiens); experiment: Induction of GPX4 degradation in human HT-1080 cells at 0.1 uM pretreated for 2 hrs followed by PYR41 addition and measured after 6 hrs; assay type: cell-based; details: time 8.0 hrs
[8] = biological target: T1, Phospholipid hydroperoxide glutathione peroxidase GPX4 (Homo sapiens); experiment: Induction of GPX4 degradation in human HT-1080 cells at 0.0001 to 0.1 uM incubated for 1 hr by Western blotting analysis; assay type: cell-based; details: dose 0.0001-0.1 µM
HT-1080 [9] = experiment: Potency index, ratio of methyl (1S,3R)-1-(4-acetylphenyl)-2-(2-chloroacetyl)-2,3,4,9-tetrahydro-1H-pyrido[3,4-b]indole-3-carboxylate IC50 to test compound IC50 for antiproliferative activity against human HT-1080 cells; assay type: functional
[10] = biological target: T1, Phospholipid hydroperoxide glutathione peroxidase GPX4 (Homo sapiens); experiment: Induction of GPX4 degradation in human HT-1080 cells at 0.1 uM pretreated for 2 hrs followed by MG132 and measured after 6 hrs; assay type: cell-based; details: time 8.0 hrs
[11] = biological target: T2, Phospholipid hydroperoxide glutathione peroxidase GPX4 (Homo sapiens, UniProt P36969); experiment: Induction of GPX4 degradation in human NCI-H1650 cells incubated for 24 hrs; assay type: cell-based
T2 sequence (P36969 whole entry): T1 sequence (whole entry)

HT-1080 [12] = experiment: Antiproliferative activity against human HT-1080 cells incubated for 24 hrs; assay type: functional, cell-based; details: HT-1080, 24 h
[13] = Antiproliferative activity against human HEK293T cells incubated for 24 hrs; assay type: toxicity, cell-based, HEK-293T
[14] = biological target: T2, Phospholipid hydroperoxide glutathione peroxidase GPX4; experiment: Induction of GPX4 degradation in gefitinib resistant human NCI-H1650 cells incubated for 24 hrs; assay type: cell-based
[15] = biological target: T1, Phospholipid hydroperoxide glutathione peroxidase GPX4 (Homo sapiens); experiment: (§1) Induction of GPX4 degradation in human HT-1080 cells incubated for 6 hrs by Western blotting analysis; assay type: cell-based; details: dose 0.0001-0.1 µM
[16] = biological target: T2, Phospholipid hydroperoxide glutathione peroxidase GPX4; experiment: as §1; assay type: cell-based
[17] = biological target: T1, Phospholipid hydroperoxide glutathione peroxidase GPX4 (Homo sapiens); experiment: Induction of GPX4 degradation in human HT-1080 cells in presence of lenalidomide; assay type: cell-based
[18] = biological target: T1, Phospholipid hydroperoxide glutathione peroxidase GPX4 (Homo sapiens); experiment: Induction of GPX4 degradation in human HT-1080 cells at 10 uM incubated for 24 hrs by Western blotting analysis; assay type: cell-based
[19] = biological target: T1, Phospholipid hydroperoxide glutathione peroxidase GPX4 (Homo sapiens); experiment: Induction of GPX4 degradation in human HT-1080 cells at 10 uM incubated for 24 hrs relative to control; assay type: cell-based
HT-1080 [20] = experiment: Antiproliferative activity against human HT-1080 cells at 10 uM; assay type: functional, cell-based
[21] = biological target: T1, Phospholipid hydroperoxide glutathione peroxidase GPX4 (Homo sapiens); experiment: Induction of GPX4 degradation in human HT-1080 cells at 0.1 to 1 uM incubated for 24 hrs; assay type: cell-based; details: dose 0.1-1 µM

SMILES: COC(=O)[C@H]1Cc2c([nH]c3ccccc23)[C@H](c2ccc(C(=O)N3CCN(CCCCCCCCCCCCCNc4cccc5c4CN(C4CCC(=O)NC4=O)C5=O)CC3)cc2)N1C(=O)CCl (stereo partly specified)
- Activity (HT-1080 [1]): inactive
- Activity [2]: 69%
- Ratio IC50 (HT-1080 [3]): 6
- Activity [4]: Active
- Activity [5]: Active
- Activity [6]: 57%
- Activity [7]: inactive
- Activity [8]: Active
- Ratio IC50 (HT-1080 [9]): 2
- Activity [10]: inactive
- DC50 [11]: 17.9 nM
- IC50 (HT-1080 [12]): 68 nM
- IC50 at 24 h [13]: 205 nM
- DC50 [14]: 22.9 nM
- Activity [15]: Dose-Dependent Effect
- DC50 [16]: 37.4 nM
- Activity [17]: Active

SMILES: CCC(=O)N1[C@@H](c2ccc(C(=O)OC)cc2)c2[nH]c3ccccc3c2C[C@@H]1C(=O)OC
- Activity [18]: inactive

SMILES: COC(=O)[C@H]1Cc2c([nH]c3ccccc23)[C@H](c2ccc(C(=O)N3CCN(CCCCCCCCCCCNc4cccc5c4C(=O)N(C4CCC(=O)NC4=O)C5=O)CC3)cc2)N1C(=O)CCl (stereo partly specified)
- Activity [2]: 46%

SMILES: CCCC(=O)N1[C@@H](c2ccc(C(=O)OC)cc2)c2[nH]c3ccccc3c2C[C@@H]1C(=O)OC
- Activity [18]: inactive

SMILES: COC(=O)[C@H]1Cc2c([nH]c3ccccc23)[C@H](c2ccc(C(=O)NCc3cn(CCOCCOCCOCCOCCN[C@H](C(=O)N4C[C@H](O)C[C@H]4C(=O)N[C@@H](C)c4ccc(-c5scnc5C)cc4)C(C)(C)C)nn3)cc2)N1C(=O)CCl
- Activity [19]: 12%

SMILES: COC(=O)[C@H]1Cc2c([nH]c3ccccc23)[C@H](c2ccc(C(=O)NCc3cn(CCOCCOCCOCCOCCOCCNc4cccc5c4C(=O)N(C4CCC(=O)NC4=O)C5=O)nn3)cc2)N1C(=O)CCl (stereo partly specified)
- Activity [19]: 15%

SMILES: COC(=O)[C@H]1Cc2c([nH]c3ccccc23)[C@H](c2ccc(C(=O)N3CCC(CN4CCN(CCCCCNc5cccc6c5C(=O)N(C5CCC(=O)NC5=O)C6=O)CC4)CC3)cc2)N1C(=O)CCl (stereo partly specified)
- Activity [6]: 5%

SMILES: COC(=O)[C@H]1Cc2c([nH]c3ccccc23)[C@H](c2ccc(C(=O)N3CCC(CN4CCN(CCCNc5cccc6c5C(=O)N(C5CCC(=O)NC5=O)C6=O)CC4)CC3)cc2)N1C(=O)CCl (stereo partly specified)
- Activity [6]: 3%

SMILES: COC(=O)[C@H]1Cc2c([nH]c3ccccc23)[C@H](c2ccc(C(=O)N3CCN(CCCCCCCCCNc4cccc5c4CN(C4CCC(=O)NC4=O)C5=O)CC3)cc2)N1C(=O)CCl (stereo partly specified)
- Activity [2]: 48%

SMILES: COC(=O)[C@H]1Cc2c([nH]c3ccccc23)[C@H](c2ccc(C(=O)N3CCN(CCCCCCCNc4cccc5c4CN(C4CCC(=O)NC4=O)C5=O)CC3)cc2)N1C(=O)CCl (stereo partly specified)
- Activity [2]: 10%

SMILES: COC(=O)[C@H]1Cc2c([nH]c3ccccc23)[C@H](c2ccc(C(=O)NCc3cn(CCOCCOCCOCCOCCOCCNc4cccc5c4CN(C4CCC(=O)NC4=O)C5=O)nn3)cc2)N1C(=O)CCl (stereo partly specified)
- Activity [19]: inactive

SMILES: COC(=O)[C@H]1Cc2c([nH]c3ccccc23)[C@H](c2ccc(C(=O)NCc3cn(CCOCCOCCOCCOCCNc4cccc5c4CN(C4CCC(=O)NC4=O)C5=O)nn3)cc2)N1C(=O)CCl (stereo partly specified)
- Activity [19]: inactive

SMILES: COC(=O)[C@H]1Cc2c([nH]c3ccccc23)[C@H](c2ccc(C(=O)NCc3cn(CCOCCOCCNc4cccc5c4CN(C4CCC(=O)NC4=O)C5=O)nn3)cc2)N1C(=O)CCl (stereo partly specified)
- Activity [19]: inactive

SMILES: COC(=O)[C@H]1Cc2c([nH]c3ccccc23)[C@H](c2ccc(C(=O)NCc3cn(CCOCCOCCOCCNc4cccc5c4C(=O)N(C4CCC(=O)NC4=O)C5=O)nn3)cc2)N1C(=O)CCl (stereo partly specified)
- Activity [19]: 22%

SMILES: COC(=O)[C@H]1Cc2c([nH]c3ccccc23)[C@H](c2ccc(C(=O)NCc3cn(CCOCCOCCOCCOCCNc4cccc5c4C(=O)N(C4CCC(=O)NC4=O)C5=O)nn3)cc2)N1C(=O)CCl (stereo partly specified)
- Activity [19]: 35%

SMILES: COC(=O)[C@H]1Cc2c([nH]c3ccccc23)[C@H](c2ccc(C(=O)N3CCC(N4CCN(CCCCCCCCCNc5cccc6c5CN(C5CCC(=O)NC5=O)C6=O)CC4)CC3)cc2)N1C(=O)CCl (stereo partly specified)
- Activity [6]: 15%

SMILES: COC(=O)[C@H]1Cc2c([nH]c3ccccc23)[C@H](c2ccc(C(=O)NCc3cn(CCOCCOCCOCCN[C@H](C(=O)N4C[C@H](O)C[C@H]4C(=O)N[C@@H](C)c4ccc(-c5scnc5C)cc4)C(C)(C)C)nn3)cc2)N1C(=O)CCl
- Activity (HT-1080 [20]): Active
- Activity [19]: 50%
- Activity [21]: inactive

SMILES: COC(=O)[C@H]1Cc2c([nH]c3ccccc23)[C@H](c2ccc(C(=O)N3CCN(CCCCCCCCCCCCCCNc4cccc5c4CN(C4CCC(=O)NC4=O)C5=O)CC3)cc2)N1C(=O)CCl (stereo partly specified)
- Activity [2]: 58%

SMILES: COC(=O)[C@H]1Cc2c([nH]c3ccccc23)[C@H](c2ccc(C(=O)N3CCN(CCCCCCCCCCCCNc4cccc5c4C(=O)N(C4CCC(=O)NC4=O)C5=O)CC3)cc2)N1C(=O)CCl (stereo partly specified)
- Activity [2]: 56%

SMILES: COC(=O)[C@H]1Cc2c([nH]c3ccccc23)[C@H](c2ccc(C(=O)N3CCN(CCCCCCCCCCCNc4cccc5c4CN(C4CCC(=O)NC4=O)C5=O)CC3)cc2)N1C(=O)CCl (stereo partly specified)
- Activity [2]: 64%

SMILES: COC(=O)[C@H]1Cc2c([nH]c3ccccc23)[C@H](c2ccc(C(=O)N3CCN(CCCCCCCCCCCCNc4cccc5c4CN(C4CCC(=O)NC4=O)C5=O)CC3)cc2)N1C(=O)CCl (stereo partly specified)
- Activity [2]: 68%

SMILES: Cc1onc(C(=O)N2CCN(C(c3ccc(Cl)cc3)c3ccc(Cl)cc3)CC2)c1[N+](=O)[O-]
- IC50 (HT-1080 [12]): 410 nM
- IC50 at 24 h [13]: 430 nM

SMILES: COC(=O)[C@H]1Cc2c([nH]c3ccccc23)[C@H](c2ccc(C(=O)NCc3cn(CCOCCOCCNc4cccc5c4C(=O)N(C4CCC(=O)NC4=O)C5=O)nn3)cc2)N1C(=O)CCl (stereo partly specified)
- Activity [19]: 32%

SMILES: CCCCCC(=O)N1[C@@H](c2ccc(C(=O)OC)cc2)c2[nH]c3ccccc3c2C[C@@H]1C(=O)OC
- Activity [18]: inactive

SMILES: COC(=O)[C@H]1Cc2c([nH]c3ccccc23)[C@H](c2ccc(C(=O)N3CCC(CN4CCN(CCCCCCCCNc5cccc6c5C(=O)N(C5CCC(=O)NC5=O)C6=O)CC4)CC3)cc2)N1C(=O)CCl (stereo partly specified)
- Activity [6]: 34%

SMILES: CCC(=O)N1[C@@H](c2ccc(C(=O)N3CCN(CCCCCCCCCCCCCNc4cccc5c4CN(C4CCC(=O)NC4=O)C5=O)CC3)cc2)c2[nH]c3ccccc3c2C[C@@H]1C(=O)OC (stereo partly specified)
- Activity [18]: inactive

SMILES: COC(=O)[C@H]1Cc2c([nH]c3ccccc23)[C@H](c2ccc(C(=O)N3CCN(CCCCCCCCCCCCCCNc4cccc5c4C(=O)N(C4CCC(=O)NC4=O)C5=O)CC3)cc2)N1C(=O)CCl (stereo partly specified)
- Activity [2]: 44%

SMILES: COC(=O)[C@H]1Cc2c([nH]c3ccccc23)[C@H](c2ccc(C(=O)N3CCN(CCCCCCCCCCCCCNc4cccc5c4C(=O)N(C4CCC(=O)NC4=O)C5=O)CC3)cc2)N1C(=O)CCl (stereo partly specified)
- Activity [2]: 67%

SMILES: COC(=O)c1ccc([C@@H]2N[C@@H](C(=O)OC)Cc3c2[nH]c2ccccc32)cc1
- Activity [18]: inactive

SMILES: COC(=O)[C@H]1Cc2c([nH]c3ccccc23)[C@H](c2ccc(C(=O)NCc3cn(CCOCCOCCOCCOCCOCCN[C@H](C(=O)N4C[C@H](O)C[C@H]4C(=O)N[C@@H](C)c4ccc(-c5scnc5C)cc4)C(C)(C)C)nn3)cc2)N1C(=O)CCl
- Activity [19]: 11%

SMILES: COC(=O)[C@H]1Cc2c([nH]c3ccccc23)[C@H](c2ccc(C(=O)NCc3cn(CCOCCOCCN[C@H](C(=O)N4C[C@H](O)C[C@H]4C(=O)N[C@@H](C)c4ccc(-c5scnc5C)cc4)C(C)(C)C)nn3)cc2)N1C(=O)CCl
- Activity [19]: 49%

SMILES: COC(=O)[C@H]1Cc2c([nH]c3ccccc23)[C@H](c2ccc(C(=O)NCc3cn(CCOCCOCCOCCNc4cccc5c4CN(C4CCC(=O)NC4=O)C5=O)nn3)cc2)N1C(=O)CCl (stereo partly specified)
- Activity [19]: inactive
